System: Hela-luci cells
Assay: cytotoxicity in Hela-luci cells by MTT method
Assay type: cell-based
Conditions: 24 hours, siRNA (and cationic polymer where named) at transfection concentration, EGCG dose well above the transfection dose
Experimental: (§1) A method for studying the cytotoxicity of the natural polyphenol EGCG in the present invention comprises steps of: incubating Hela-luci cells in a 96-well plate at a cell density of 10^4 cells/well, removing a medium after incubation for 12 hours, and adding 100 μl fresh medium containing the siRNA whose concentration is the same as transfection concentration and a certain amount of EGCG, where the concentration of EGCG is from low to high (comprising the transfection concentration), and a final concentration is much higher than the transfection concentration; culturing for 24 hours, and measuring cytotoxicity by a MTT method.
as §1, with “polyphenol EGCG and cationic polymer LPEI in the” for “polyphenol EGCG in the”, “the siRNA and LPEI whose concentration” for “the siRNA whose concentration”, “MTT method. […]” for “MTT method.”

O=C(O[C@@H]1Cc2c(O)cc(O)cc2O[C@@H]1c1cc(O)c(O)c(O)c1)c1cc(O)c(O)c(O)c1 [EGCG]
cell viability: more than 90%

— patent publication US11077206B2, “Composition for gene therapy or transfection, and preparation method and use thereof” (SHANGHAI CHANGZHENG HOSPITAL, priority 2017, dated 2021)
